Laboratory results published in patent publication US20220265671A1, “METHOD FOR TREATING STROKE BY USING TRICYCLIC DERIVATIVE” (Jeil Pharmaceutical Co., Ltd., priority 2019, published 2022).
Several values for one entry are separate records, joined by “and”; a condition that tells them apart may be missing. Equal values may be shown once.

Key:
Assay type in all cases: in vivo, human
[1] = system: healthy male volunteers; test: Phase 1 clinical test, single dose escalation: adverse reactions
Protocol: In order to evaluate the safety at the time of a single dose of a test drug, a phased clinical test was conducted as determined by the Data Safety Monitoring Board (DSMB) on 40 subjects (8 subjects per cohort: 6 subjects in test group and 2 subjects in placebo group) in 5 dose groups (35 mg, 75 mg, 150 mg, 300 mg, 600 mg) selected from healthy male volunteers in Korea.
A test drug or placebo was mixed with an infusion solution by intravenous injection therapy, and then administered using an infusion pump for 30 minutes (±5 minutes).
Of the 40 test subjects who were administered the clinical test drug, a total of 6 test subjects developed 7 adverse reactions. There were no reported adverse reactions in the placebo-administered group. Of the 7 adverse reactions, 1 case of “dizziness” was a moderate symptom in the test subjects who were administered 600 mg, and all other adverse reactions corresponded to a mild symptom. The subjects were spontaneously recovered from all the adverse reactions without any sequelae. […] Accordingly, it was determined that the drug tolerability of a single dose of the test drug was good in the test dose range.

[2] = system: patients with acute ischemic stroke; test: Phase II clinical test: change ratio of cerebral infarction lesion (MRI, day 4 vs baseline)
Protocol: (§1) A multi-organ, randomly allocated, double-blind, placebo-controlled, and initial phase II clinical test was conducted on patients with acute ischemic stroke to explore and evaluate the efficacy and safety of the study drug, respectively. This clinical test includes a total of three cohorts, and test subject registration starts from Cohort 1, and when the safety is secured, Cohort 2 is sequentially registered. The registration of Cohort 2 proceeds when the safety is secured after evaluation by the Data Safety Monitoring Board (DSMB) at the time point when all the test subjects of Cohort 1 completed Visit 5 (Day 29). Cohorts 1 and 2 are for confirming the safety and efficacy of the test drug, and based on this, the dose and dosage regimen, and the like of Cohort 3 are determined.
(§2) This clinical test is conducted on patients with modified thrombolysis in cerebral infarction (mTICI) 2b or 3 grade reperfusion in angiography after endovascular recanalization therapy (ERT) among patients with severe ischemic stroke in moderate cases confirmed to have undergone acute cerebral artery occlusion of the anterior circulation system. Intravenous tissue plasminogen activator (IV tPA) intravenous administration is permitted when the stroke is indicated before ERT. Furthermore, when angiography is performed for ERT after intravenous tPA administration, patients who have already undergone mTICI 2b-3 reperfusion by a venous tPA effect alone before ERT also become a subject of the clinical test.
(§3) The following Cohorts 1 to 3 are administered using an infusion pump after mixing a test drug or control drug with an infusion solution.
(§4) Cohort 1. Low-Dose Administration Group • Test drug group: administration of the test drug is started within 30 minutes after reperfusion is confirmed within 6 hours after the onset of the symptom. Immediately after intravenous administration (bolus) of 150 mg of the test drug for 15 minutes, 750 mg of the test drug is intravenously IV infused for 23 hours and 45 minutes (f2 hours). Administration of the test drug should be started within 6.5 hours after the onset of the symptom. • Control drug group: a placebo is administered in the same manner as in the test drug group.
Diffusion weighted imaging (DWI) and gradient-recalled echo (GRE) or susceptibility weighted imaging (SWI), and magnetic resonance imaging (MRI) examination are performed within 90 minutes after reperfusion while administering a medicine for a clinical test, and this is utilized as a baseline result. A change ratio of cerebral infarction lesion at a time point of day 4 compared to the baseline was measured.
For comparison between a test group and the placebo, a two sample t-test is used after log conversion of an evaluation variable (infarct growth ratio). Additionally, a comparison between the test group and the placebo is made using a Wilcoxon rank sum test for a source data log which is not log-converted.
When factors that may affect prognosis should be corrected, analysis of covariance (ANCOVA) is used after log conversion of the evaluation variables (infarct growth ratio).
In patients who were administered a control drug or a test drug, the change ratio of cerebral infarction lesions among patients with similar baselines of cerebral infarction lesions was confirmed (Table 3).

[3] = system: patients with acute ischemic stroke; test: Phase II clinical test: Korean version of modified Rankin Scale (K-mRS) at day 90
Protocol: as §1, §2, §3, §4
Cohort 2. High-Dose Administration Group • Test drug group: administration of the test drug is started within 30 minutes after reperfusion is confirmed within 6 hours after the onset of the symptom. Immediately after intravenous administration (bolus) of 300 mg of the test drug for 30 minutes, 1500 mg of the test drug is intravenously IV infused for 23 hours and 30 minutes (±2 hours). Administration of the test drug should be started within 6.5 hours after the onset of the symptom. • Control drug group: a placebo is administered in the same manner as in the test drug group.
The most widely used method for evaluating disability or dependence in daily life for people who have suffered from stroke or other neurological disorders is the Korean version of a modified Rankin Scale (K-mRS). The K-mRS is a global functional outcome scale which evaluates disability due to stroke and is the most universally used scale in stroke clinical tests. The K-mRS distribution shift analysis is a method of comparing the overall prognosis of the test group and the control group, and is the most recommended analysis method in clinical tests for acute stroke treatment methods including neuroprotective agents. The K-mRS is a scale of evaluating the patient's global functionality according to the independence of daily life and the degree to which the patient needs others' help, and is divided into 0 to 6 phases (0: normal, 5: severe disability, and 6: death). At the time points of days 29 and 90, a proportion of the K-mRS score evaluated by the evaluator is presented, and the pre-mRS evaluated at the time of screening is used as basic disease information. […]

[4] = Cohort 1, day 4 compared to baseline, individual patients 2, 4, 6, 8, dihydrochloride
[5] = Cohort 1 (150 mg bolus + 750 mg infusion), n = 9
[6] = Cohort 2 (300 mg bolus + 1500 mg infusion), n = 6

CCOc1cc(CN2CCOCC2)cc2[nH]c(=O)c3c(c12)NCCC3.Cl.Cl [Test drug, 10-ethoxy-8-(morpholinomethyl)-1,2,3,4-tetrahydrobenzo[h][1,6]naphthyridin-5(6H)-one dihydrochloride]
number of adverse reactions ([1]; single IV dose 35-600 mg over 30 minutes, 40 test subjects): 7 | test subjects who developed adverse reactions ([1]; single IV dose 35-600 mg over 30 minutes, of the 40 test subjects, no adverse reactions in placebo group): 6 | moderate adverse reactions (dizziness), cases ([1]; single dose 600 mg, all other adverse reactions mild): 1 | significant adverse reactions ([1]; single dose 35-600 mg, entire clinical test): No significant adverse reactions occurred | drug tolerability of a single dose ([1]; test dose range 35-600 mg IV): good | Cerebral infarction lesion, Baseline ([2]; Cohort 1 (150 mg bolus + 750 mg infusion), individual patients 2, 4, 6, 8, MRI within 90 minutes after reperfusion, dihydrochloride): 1.59 cc and 10.1 cc and 32 cc and 126.66 cc | Cerebral infarction lesion, Time point of day 4 ([2]; Cohort 1 (150 mg bolus + 750 mg infusion), individual patients 2, 4, 6, 8, dihydrochloride): 2.67 cc and 10.94 cc and 45.33 cc and 127.61 cc | Change ratio of cerebral infarction lesion [2, 4]: 1.68 and 1.08 and 1.42 and 1.01 | Rate of increase in cerebral infarction lesion [2, 4]: 67.9% and 8.3% and 41.7% and 0.8% | rate of increase in cerebral infarction lesions compared to control drug group ([2]; patients with similar baselines, Table 3): significantly low rate of increase in cerebral infarction lesions | results of the K-mRS compared to control drug group ([3]; 900 mg of the test drug, day 90): far superior | K-mRS classification at the time point of day 90: K-mRS 0~2 [3, 5]: 7(77.78) n(%) | K-mRS classification at the time point of day 90: K-mRS 3~4 [3, 5]: 2(22.22) n(%) | K-mRS classification at the time point of day 90: K-mRS 5~6 [3, 5]: 0 n(%) | K-mRS (continuous variable) at the time point of day 90, 1st Quartile ([3]; Cohort 1 (900 mg), N = 9): 0.00 | K-mRS (continuous variable) at the time point of day 90, 3rd Quartile ([3]; Cohort 1 (900 mg), N = 9): 2.00 | K-mRS (continuous variable) at the time point of day 90, Max ([3]; Cohort 1 (900 mg), N = 9): 4.00 | K-mRS (continuous variable) at the time point of day 90, Mean(SD) ([3]; Cohort 1 (900 mg), N = 9): 1.44(1.42) | K-mRS (continuous variable) at the time point of day 90, Median ([3]; Cohort 1 (900 mg), N = 9): 1.00 | K-mRS (continuous variable) at the time point of day 90, Min ([3]; Cohort 1 (900 mg), N = 9): 0.00 | K-mRS classification at the time point of day 90: K-mRS 0 ([3]; Cohort 1, N = 9): 3(33.33) n(%) | K-mRS classification at the time point of day 90: K-mRS 1 ([3]; Cohort 1, N = 9): 2(22.22) n(%) | K-mRS classification at the time point of day 90: K-mRS 2 ([3]; Cohort 1, N = 9): 2(22.22) n(%) | K-mRS classification at the time point of day 90: K-mRS 3 ([3]; Cohort 1, N = 9): 1(11.11) n(%) | K-mRS classification at the time point of day 90: K-mRS 4 ([3]; Cohort 1, N = 9): 1(11.11) n(%) | K-mRS classification at the time point of day 90: K-mRS 5 ([3]; Cohort 1, N = 9): 0 n(%) | K-mRS classification at the time point of day 90: K-mRS 6 ([3]; Cohort 1, N = 9): 0 n(%) | K-mRS classification at the time point of day 90: K-mRS 0~2 [3, 6]: 1(20.00) n(%) | K-mRS classification at the time point of day 90: K-mRS 3~4 [3, 6]: 3(60.00) n(%) | K-mRS classification at the time point of day 90: K-mRS 5~6 [3, 6]: 1(20.00) n(%)
